Data on 29 compounds can be found in patent US10280163B2 (BeiGene, Ltd., priority 2015, dated 2019).

Like-named read-outs stand apart in the source and are kept apart here.

As usually defined, the EC50 is the concentration needed to bring the measured effect to its halfway point. A low value points to a more potent agent. As a reminder, the IC50 is the concentration needed to halve the response being measured.

The target of experiment [1] is T1, cellular IDO1 in HeLa cells (Homo sapiens, UniProt P14902).
T1 construct: endogenous in cells; host or cells: HeLa cells (American Type Tissue Culture Collection), induced with human recombinant IFN-γ
T1 sequence (P14902 whole entry): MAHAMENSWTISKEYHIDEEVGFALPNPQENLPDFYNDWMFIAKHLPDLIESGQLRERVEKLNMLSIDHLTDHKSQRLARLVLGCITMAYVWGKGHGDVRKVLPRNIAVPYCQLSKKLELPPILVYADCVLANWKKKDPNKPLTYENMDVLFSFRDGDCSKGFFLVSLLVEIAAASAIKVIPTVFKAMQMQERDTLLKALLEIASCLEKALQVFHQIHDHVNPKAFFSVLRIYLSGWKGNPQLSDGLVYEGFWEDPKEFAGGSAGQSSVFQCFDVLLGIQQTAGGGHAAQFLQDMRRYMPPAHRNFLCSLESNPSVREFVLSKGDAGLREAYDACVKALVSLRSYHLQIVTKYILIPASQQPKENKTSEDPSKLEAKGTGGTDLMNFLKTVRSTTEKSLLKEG
Briefly: HeLa cell-based IDO1 Kyn (kynurenine) production assay. As to conditions: IFN-γ 100 ng/mL, 48 hours. The procedure:
HeLa Cell-Based IDO1 Kyn (Kynurenine) Production Assay:
The inhibitory activity of IDO1 inhibitors is determined by using a colorimetric reaction to measure Kyn generated from L-Trp (L-Tryptophon) oxidation by cellular IDO1 in HeLa cells after induction of IDO1 by IFN-γ.
Hela cells were obtained from the American Type Tissue Culture Collection and recovered in 10% FBS-containing phenol red-free DMEM medium supplemented with 0.4 mM L-Trp. Cells were plated onto a 96-well plate (100 μl/well) at 8000 cells per well. Human recombinant IFN-γ (8901SC, CST) was added to cells (final concentration 100 ng/mL) to stimulate endogenous IDO1. Compounds at different concentrations diluted in dimethylsulfoxide (DMSO) were added simultaneously with IFN-γ. Cells were kept at 37° C. in a humidified incubator supplied with 5% CO2. After 48 hours of incubation, 100 μl supernatant from each well was removed to a new plate. The protein in the medium was precipitated with the addition of 8 μl 6N trichloroacetic acid. The plate was incubated at 60° C. for 45 min and then centrifugation at 2500 rpm for 10 min to remove sediments. 80 μl supernatants were carefully removed to a new clean plate and added with an equal volume of 2% 4-(Dimethylamino) benzaldehyde (D2004, sigma) dissolved in glacial acetic acid. The absorbance at 480 nm wavelength derived from Kyn was measured using a FULOstar OMEGA plate reader (BMG LABTECH). The IC50 for each compound was derived from fitting the dose-response data to the four-parameter logistic model by using Graphpad Prism software.

Experiment [2] addresses T2, Recombinant IDO1 (Homo sapiens, UniProt P14902).
T2 construct: His tag (N); made in house; host or cells: E. coli
Briefly: IDO1 enzymatic assay. Particulars: 50 nM IDO1, 1.3 mM D-tryptophan, read-out: Enzyme IC50 (nM) IDO1. The class given is biochemical. Here is the method: Recombinant IDO1 was overexpressed and purified from E. coli cells with an N-terminal His tag. IDO1 enzymatic assay was carried out using a methodology similar to described in the literature (J. Biol. Chem. (1980), 255, 1339-1345.). The reaction mixture contains 50 nM IDO1, 1.3 mM D-tryptophan, 5 mM L-ascorbic acid, 6.25 μM methylene Blue, 0.4 mg/mL catalase and compound (or DMSO) in a buffer containing 50 mM potassium phosphate pH 7.5 and 0.1% BSA. After incubation at 24° C. for 1.5 hours, absorbance of the reaction mixture was continuously read at 321 nm to monitor the formation of N′-formylkynurenine by a FULOstar OMEGA plate reader (BMG LABTECH) for 1 hour. The enzymatic activity was determined by measuring the slope of the linear absorbance increase as a function of time. The IC50s are calculated based on remaining enzyme activity in the presence of increasing concentrations of compounds.

Setting [3] is: Table 2, 8-substituted imidazo[1,5-a]pyridines.
[4] abbreviates: Table 1, 5-substituted imidazo[1,5-a]pyridines.

T2 sequence (P14902 whole entry): as above

In experiment [1] (setting [3]), `OC(c1c(C2CC2)ccn2cncc12)[C@H]1CC[C@H](O)CC1` (single isomer, unassigned) [Example B119b, (trans)-4-((7-Cyclopropylimidazo[1,5-a]pyridin-8-yl)(hydroxy)methyl)cyclohexan-1-ol] gave an EC50 of over 10000 nM. The IC50 in experiment [2] (setting [3]) came to 5500 nM.
For the compound `OC(c1c(C2CC2)ccn2cncc12)[C@H]1CC[C@@H](O)CC1` (single isomer, unassigned) [Example B119c], the EC50 in experiment [1] (setting [3]) was over 10000 nM. Further, the half-inhibitory concentration (IC50) in experiment [2] (setting [3]) was 7700 nM.
In the case of `OC(c1c(C2CC2)ccn2cncc12)[C@H]1CC[C@@H](O)CC1` (single isomer, unassigned) [Example B119d], a half-maximal effect in experiment [1] (setting [3]) (EC50) was put at 2990 nM. The IC50 in experiment [2] (setting [3]) was 110 nM.
With `CC(C)c1ccn2cncc2c1C(O)[C@H]1CC[C@H](O)CC1` (single isomer, unassigned) [Example B121a, (trans)-4-(Hydroxy(7-isopropylimidazo[1,5-a]pyridin-8-yl)methyl) cyclohexan-1-ol], it took 719 nM to reach a half-maximal effect in experiment [1] (setting [3]) (EC50). The 50% inhibitory concentration (IC50) in experiment [2] (setting [3]) is 210 nM.
Turning to `CC(C)c1ccn2cncc2c1C(O)[C@H]1CC[C@H](O)CC1` (single isomer, unassigned) [Example B121b, (trans)-4-(Hydroxy(7-isopropylimidazo[1,5-a]pyridin-8-yl)methyl) cyclohexan-1-ol], the EC50 in experiment [1] (setting [3]) is over 10000 nM. In experiment [2] (setting [3]), the concentration for half-maximal inhibition (IC50) came out at 21000 nM.
Compound `CC(C)c1ccn2cncc2c1[C@@H](O)[C@H]1CC[C@@H](O)CC1` (single isomer, unassigned) [Example B121c] gave a 50% effective concentration (EC50) in experiment [1] (setting [3]) of 1670 nM. Further, the IC50 in experiment [2] (setting [3]) was found to be 110 nM.
In turn, `CC(C)c1ccn2cncc2c1C(O)[C@H]1CC[C@@H](O)CC1` (single isomer, unassigned) [Example B121d] came in with an EC50 in experiment [1] (setting [3]) of over 10000 nM. Further, the IC50 in experiment [2] (setting [3]) worked out at 46000 nM.
In experiment [1] (setting [3]), `O[C@H](c1c(C2CC2)ccn2cncc12)C1CC2CCC1C2` (single isomer, unassigned) [Example B122b] registered a concentration for a half-maximal effect (EC50) of 295 nM. In addition, the 50% inhibitory concentration (IC50) in experiment [2] (setting [3]) is 78 nM.
In the case of `OC(c1c([C@H]2C[C@@H]2F)ccn2cncc12)C1CCCCC1` (single isomer, unassigned) [Example B128b, Cyclohexyl(7-((trans)-2-fluorocyclopropyl)imidazo[1,5-a]pyridin-8-yl)methanol], in experiment [1] (setting [3]), the concentration giving a half-maximal response (EC50) is over 10000 nM. Also, the half-maximal inhibitory concentration (IC50) in experiment [2] (setting [3]) amounted to 39000 nM.
For `OC(c1c([C@H]2C[C@@H]2F)ccn2cncc12)C1CCCCC1` (single isomer, unassigned) [Example B128c, Cyclohexyl(7-((trans)-2-fluorocyclopropyl)imidazo[1,5-a]pyridin-8-yl)methanol] the same measures were over 10000 nM and 110000 nM.
Compound `CS(=O)(=O)N1CCCC(C(O)c2c(C3CC3)ccn3cncc23)C1` (single isomer, unassigned) [Example B130a, (7-Cyclopropylimidazo[1,5-a]pyridin-8-yl)(1-(methylsulfonyl)piperidin-3-yl)methanol] came in with an EC50 in experiment [1] (setting [3]) of over 10000 nM. In experiment [2] (setting [3]), the IC50 turned out to be 1400 nM.
`CS(=O)(=O)N1CCCC(C(O)c2c(C3CC3)ccn3cncc23)C1` (single isomer, unassigned) [Example B130b, (7-Cyclopropylimidazo[1,5-a]pyridin-8-yl)(1-(methylsulfonyl)piperidin-3-yl)methanol] displayed a concentration for a half-maximal effect (EC50) in experiment [1] (setting [3]) of 909 nM. In addition, in experiment [2] (setting [3]), the IC50 was determined as 1200 nM.
In the same order, the values of `CC(=O)N1CCCC(C(O)c2c(C3CC3)ccn3cncc23)C1` (single isomer, unassigned) [Example B133a, 1-(3-((7-Cyclopropylimidazo[1,5-a]pyridin-8-yl)(hydroxy)methy)piperidin-1-yl)ethan-1-one] are over 10000 nM and 1900 nM.
`CC(=O)N1CCCC(C(O)c2c(C3CC3)ccn3cncc23)C1` (single isomer, unassigned) [Example B133b, 1-(3-((7-Cyclopropylimidazo[1,5-a]pyridin-8-yl)(hydroxy)methy)piperidin-1-yl)ethan-1-one] showed an EC50 in experiment [1] (setting [3]) of 6810 nM. The IC50 in experiment [2] (setting [3]) is 1100 nM.
Take `NS(=O)(=O)N1CCCC(C(O)c2c(C3CC3)ccn3cncc23)C1` (single isomer, unassigned) [Example B135a, 3-((7-Cyclopropylimidazo[1,5-a]pyridin-8-yl)(hydroxy)methyl)piperidine-1-sulfonamide]: the 50% effective concentration (EC50) in experiment [1] (setting [3]) is over 10000 nM. Further, the half-inhibitory concentration (IC50) in experiment [2] (setting [3]) worked out at 1100 nM.
`NS(=O)(=O)N1CCCC(C(O)c2c(C3CC3)ccn3cncc23)C1` (single isomer, unassigned) [Example B135b, 3-((7-Cyclopropylimidazo[1,5-a]pyridin-8-yl)(hydroxy)methyl)piperidine-1-sulfonamide] gave an EC50 in experiment [1] (setting [3]) of 1350 nM. Further, the IC50 in experiment [2] (setting [3]) amounted to 950 nM.
Compound `OC(c1c(C2CC2)ccn2cncc12)C1CCC(c2ccccc2)CC1` (single isomer, unassigned) [Example B143a, (S)-(7-cyclopropylimidazo[1,5-a]pyridin-8-yl)(trans or cis-4-phenylcyclohexyl)methanol] displayed an EC50 in experiment [1] (setting [3]) of 79 nM. For the same compound, the 50% inhibitory concentration (IC50) in experiment [2] (setting [3]) was found to be 56 nM.
`OC(c1c(C2CC2)ccn2cncc12)C1CCC(c2ccccc2)CC1` (single isomer, unassigned) [Example B143b, (S)-(7-cyclopropylimidazo[1,5-a]pyridin-8-yl)(cis or trans-4-phenylcyclohexyl)methanol]: in experiment [1] (setting [3]), the EC50 was 8660 nM. In addition, the 50% inhibitory concentration (IC50) in experiment [2] (setting [3]) was determined as 300 nM.
Compound `CC(C)(C)C(O)c1cccc2cncn12` (stereo not shown) [Example A004, 1-(imidazo[1,5-a]pyridin-5-yl)-2,2-dimethylpropan-1-ol] returned a 50% effective concentration (EC50) in experiment [1] (setting [4]) of over 10000 nM. For the same compound, in experiment [2] (setting [4]), the IC50 is 360 nM.
In the case of `CC(C)C(O)c1cccc2cncn12` (stereo not shown) [Example A005, 1-(imidazo[1,5-a]pyridin-5-yl)-2-methylpropan-1-ol], the EC50 in experiment [1] (setting [4]) is over 10000 nM. For the same compound, the IC50 in experiment [2] (setting [4]) came to 1500 nM.
`OC(c1ccc(F)cc1)c1cccc2cncn12` (stereo not shown) [Example A008, (4-fluorophenyl)(imidazo[1,5-a]pyridin-5-yl)methanol] registered an EC50 in experiment [1] (setting [4]) of over 10000 nM. For the same compound, the half-maximal inhibitory concentration (IC50) in experiment [2] (setting [4]) was 2400 nM.
Regarding `CC(O)(c1cccc2cncn12)C1CCCCC1` (stereo not shown) [Example A016, 1-cyclohexyl-1-(imidazo[1,5-a]pyridin-5-yl)ethan-1-ol], the EC50 in experiment [1] (setting [4]) is over 10000 nM. Also, the half-inhibitory concentration (IC50) in experiment [2] (setting [4]) was determined as 23000 nM.
With `FC(c1cc(Cl)cc2cncn12)C1CCCCC1` (stereo not shown) [Example A021, 7-chloro-5-(cyclohexylfluoromethyl)imidazo[1,5-a]pyridine], the concentration for a half-maximal effect (EC50) in experiment [1] (setting [4]) is over 10000 nM. Further, the half-maximal inhibitory concentration (IC50) in experiment [2] (setting [4]) came to 1800 nM.
For `OC(CC1CCCCC1)c1ccc(Cl)c2cncn12` (stereo not shown) [Example A025, 1-(8-chloroimidazo[1,5-a]pyridin-5-yl)-2-cyclohexylethan-1-ol], the EC50 in experiment [1] (setting [4]) is over 10000 nM. In experiment [2] (setting [4]), the IC50 was 2500 nM.
For `OCC1(C(O)c2cc(Cl)cc3cncn23)CCCCC1` (stereo not shown) [Example A106, (7-chloroimidazo[1,5-a]pyridin-5-yl)(1-(hydroxymethyl)cyclohexyl)methanol], the EC50 in experiment [1] (setting [4]) was 1660 nM. In addition, the half-inhibitory concentration (IC50) in experiment [2] (setting [4]) worked out at 120 nM.
`CC(C1CCCCC1)C(O)c1c(Cl)ccc2cncn12` (stereo not shown) [Example A121, 1-(6-chloroimidazo[1,5-a]pyridin-5-yl)-2-cyclohexylpropan-1-ol]: the response in experiment [1] (setting [4]) was half-maximal at 1570 nM (EC50). Further, in experiment [2] (setting [4]), the IC50 amounted to 29 nM.
Turning to `OC(c1c(C2CC2)ccc2cncn12)C1CC1` (stereo not shown) [Example A137, cyclopropyl(6-cyclopropylimidazo[1,5-a]pyridin-5-yl)methanol], in experiment [1] (setting [4]), the half-maximal effective concentration (EC50) was 3760 nM. Besides, the 50% inhibitory concentration (IC50) in experiment [2] (setting [4]) is 25 nM.
In experiment [1] (setting [4]), `OC1CCC([C@H](O)c2c(C3CC3)ccc3cncn23)CC1` (stereo partly drawn) [Example A142a, (1R,4s)-4-((S)-(6-cyclopropylimidazo[1,5-a]pyridin-5-yl)(hydroxy)methyl)cyclohexan-1-ol] showed a half-maximal effective concentration (EC50) of 661 nM. The concentration for half-maximal inhibition (IC50) in experiment [2] (setting [4]) is 12 nM.
Turning to `OC(c1c(C2=CCCC2)ccc2cncn12)C1CCCCC1` (stereo not shown) [Example A157, cyclohexyl(6-(cyclopent-1-en-1-yl)imidazo[1,5-a]pyridin-5-yl)methanol], a half-maximal effect in experiment [1] (setting [4]) (EC50) was put at 2680 nM. Besides, in experiment [2] (setting [4]), the concentration for half-maximal inhibition (IC50) is 200 nM.
